Assay results from patent publication US20230313299A1, “METHOD FOR DIAGNOSIS AND/OR PROGNOSIS OF LIVER DISEASE PROGRESSION AND RISK OF HEPATOCELLULAR CARCINOMA AND DISCOVERY OF THERAPEUTIC COMPOUNDS AND TARGETS TO TREAT LIVER DISEASE AND CANCER” (UNIVERSITÉ DE STRASBOURG, priority 2020, published 2023).
“Also recorded” adds a separate entry of the source.

How the values were obtained:
[1] = system: Prognostic Epigenetic Signature (PES, 25-gene signature) in HCV Jc1-infected Huh7.5.1dif cells; assay: PES cell-based model: HCV-infected differentiated Huh7.5.1 cells, PES expression by RNA-Seq or nCounter; set-up: species or system human; conditions: JQ1 50 nM, Nizatidine 10 μM, Captopril 1 μM, Pioglitazone 1 μM
Description: Cell-based models. Huh7.5.1 and human stellate LX2 cells were cultured in Dulbecco's Modified Eagle Medium (DMEM) supplemented with 10% heat-decomplemented fetal bovine serum FBS, gentamycin (0.05 mg/mL) and non-essential amino acids (complete DMEM) at 37° C. with 5% CO2. For proliferation arrest and differentiation ([…] cells), Huh7.5.1 cells were cultured in complete DMEM supplemented 1% DMSO [5]. All cell lines were certified mycoplasma-free. To analyze the PES induction […] cells were infected with HCV Jc1 (genotype 2a/2a) for a total of 10 days. Cells were then treated with Captopril (1 μM), Nizatidine (10 μM), Pioglitazone (1 μM), JQ1 (50 nM). For the FFA model, Huh7.5.1^dif cells were cocultured with 20% LX-2 cells. Following co-culture for 3 days in DMEM supplemented with 10% heat-decomplemented FBS, gentamycin and 1% DMSO at 37° C. and 5% CO2, cells were incubated with FFA (800 μM oleic acid and 400 μM palmitic acid) for 72 h.
Analysis of gene expression of the prognostic epigenetic signature (PES) using nCounter expression or RNASeq analyses. Profiling of the PES was performed using Nanostring nCounter assay or RNASeq as described. Induction or suppression of the PES in gene expression data was determined as previously reported using the Gene Set Enrichment Analysis (GSEA), implemented in GenePattern genomic analysis toolkits. […]

[2] = system: 1693-gene signature and 25-gene signature (PES); assay: Transcriptomic profiling (RNA-Seq, GSEA) of livers of DEN/CDAHFD mice; format: in vivo, mouse
Description: ChIPmentation based ChIP-Seq and RNA next-generation sequencing (NGS). ChIPmentation-based ChIP-Seq was performed as described. RNA-Seq was performed as described. Mouse RNA-Seq data was processed as described for patient's data but was instead mapped to the mouse genome mm10 and annotated using the Gencode vM15 gene annotation. Processing of ChIPmentation data was described, and data was partially derived from BioProject PRJNA506130. Since late stage fibrosis patients have the highest HCC risk, patient tissues from late stage fibrosis (F3 and F4) samples were included for all H3K27ac analyses as well as from the external CHC RNA-Seq dataset (GSE84346)[12]. Transcriptomic data for NASH patients was derived from external expression dataset (GSE115193)[13] and data for DAA-cured patients was published in BioProject PRJNA506130[6]. The RNA-Seq data from HCV-infected liver cells was published in (GSE126831)[14].
Analysis of gene expression of the prognostic epigenetic signature (PES) using nCounter expression or RNASeq analyses. Profiling of the PES was performed using Nanostring nCounter assay or RNASeq as described. Induction or suppression of the PES in gene expression data was determined as previously reported using the Gene Set Enrichment Analysis (GSEA), implemented in GenePattern genomic analysis toolkits. False discovery rate (FDR)<0.05 was regarded as statistically significant. […]

[3] = system: DEN and CDAHFD-induced hepatocarcinogenesis; assay: DEN/CDAHFD NASH-fibrosis-HCC mouse model: liver disease, fibrosis and tumor burden; format: in vivo; conditions: DEN/CDAHFD mice
Excerpt: FIG. 8. Reversal of the PES poor prognosis status in vivo by a bromodomain-4 inhibitor translates into improvement of liver disease and cancer prevention (A) Schematic representation of in vivo the proof-of-concept study using a mouse model of DEN and choline-deficient, L-amino acid-defined, high-fat diet (CDAHFD)-induced hepatocarcinogenesis. (B) Transcriptomic changes of genes with significant H3K27ac modifications from livers from patients with NASH and chronic hepatitis C (CHC) as explained in FIG. 1D (overlapping genes) and corresponding changes in vehicle or JQ1-treated DEN/CDAHFD mice. (C) Venn diagram showing epigenetically and transcriptionally altered genes in CHC/NASH patients and in DEN/CDAHFD mice, that were corrected by JQ1 treatment. Genes that harbor epigenetic and transcriptomic changes were identified in CHC/NASH patients and in DEN/CDAHFD mice. Among the changed genes, the inventors analyzed whether JQ1 could revert back their H3K27ac levels and their transcript expression levels. (H) GSEA enrichments of 1693-gene signature and 25-gene signature (PES) gene sets in data shown for JQ1-treated DEN/CDAHFD mice. (D) Improvement of liver disease and prevention of HCC. The global status corresponds to the difference between low risk- and high risk-gene expression. GSEA enrichments of 1693-gene signature and 25-gene signature (PES) gene sets in data shown for JQ1-treatment on panel B. The global status corresponds to the difference between low risk- and high risk-gene expression. […] Results are expressed as means±SEM. (F) Representative macroscopic photographs of livers (×1.5 magnified), H&E and Sirius red staining of liver sections from vehicle and JQ1-treated mice. Tumor nodules are indicated by an arrowhead and are delimited by dashed lines. […] Fibrosis stage was evaluated through quantitative digital analysis of whole-scanned liver sections (collagen proportional area (CPA)) in JQ1-treated (n=3) compared with JQ1-untreated (n=3) mice. Results are expressed as means±SD.
Example 5: Reversal of the PES poor prognosis status in vivo translates into improvement of liver disease, inhibition of fibrosis progession and cancer prevention. To investigate (1) whether the PES is modeled in animal models for liver disease and (2) reversal of the […] poor prognosis status by a compound correlates with improvement of liver disease and cancer prevention, the inventors studied the 1693 gene signature and the 25 gene subset expression in a NASH-fibrosis-HCC mouse model, in which the mice are treated with the BRD inhibitor JQ1 following development of liver disease. In this model a Choline-deficient high-fat-diet (CDHFD) diet combined with DEN, a chemical carcinogen, induces liver fibrosis progressing to HCC. […] Mice were treated with JQ1 after 6 weeks of CDAHFD feeding when liver disease developed (FIG. 8A).

Row | Structure (SMILES) | Reversal of PES (25-gene signature) from HCC high risk, poor prognosis status to HCC low risk, good prognosis status [1] | GSEA enrichment of 1693-gene signature and 25-gene signature (PES) gene sets after treatment [2] | Expression of H3K27ac-altered genes in patients reverted by treatment ([2]; 1007 out of 1693 genes) | Tumor burden in vivo [3] | Liver fibrosis measured by collagen proportionate area (CPA) ([3]; treated n=3 vs untreated n=3) | Body weight ([3]; treated n=8 vs untreated n=8) | Liver weight ([3]; treated n=8 vs untreated n=8) | Number of tumor nodules ([3]; treated n=8 vs untreated n=8)
1 | Cc1sc2c(c1C)C(c1ccc(Cl)cc1)=N[C@@H](CC(=O)OC(C)(C)C)c1nnc(C)n1-2 [JQ1] | Reversal of the poor prognosis/HCC high risk genes to good prognosis/HCC low risk expression; also recorded: reverted the 25-gene signature (PES) | correspondingly (i.e., reversely) enriched | 59% | significantly reduces tumor burden | efficiently reduces liver fibrosis; also recorded: significantly (p<0.05) reduced | stable; also recorded: without altering | significantly reduced | reduced; also recorded: overall decrease in their number
2 | CNC(=C[N+](=O)[O-])NCCSCc1csc(CN(C)C)n1 [Nizatidine] | Reversal of the poor prognosis/HCC high risk genes to good prognosis/HCC low risk expression |  |  |  |  |  |  | 
